Reference: patent US9597402B2, “Sustained release small molecule drug formulation” (DURECT CORPORATION, priority 2005, dated 2017)

Tests used:
[1] = Intrinsic dissolution rate; assay type: physicochemical
Excerpt: (§1) In one embodiment, a small molecule drug formulation includes a small molecule psychotherapeutic drug, such as a small molecule antipsychotic, dopamine receptor agonist, dopamine receptor antagonist, serotonin receptor agonist, serotonin receptor antagonist, and serotonin uptake inhibitor drug. […] R209130-base has the molecular formula C19H20FNO. R209130-mandelic acid salt (R209130) has the molecular formula C19H20FNO.C8H8O3. R209130-tartaric acid salt (R167154) has the molecular formula C19H20FNO.C4H6O6.

Solubility in H2O = settings: pH 7.2
Excerpt: as §1

Solubility at pH 7 = settings: cell states pH 7.2
Excerpt: as §1

[2] = Solubility in benzyl benzoate (BB); settings: temperature not given
Excerpt: as §1

[3] = Solubility in benzyl alcohol (BA); settings: temperature not given
Excerpt: as §1

| SMILES | Intrinsic dissolution rate [1] | Solubility in H2O (Solubility in H2O) | Solubility at pH 7 (Solubility at pH 7) | Solubility in BB [2] | Solubility in BA [3] |
| --- | --- | --- | --- | --- | --- |
| Cc1nc2n(c(=O)c1CCN1CCC(c3noc4cc(F)ccc34)CC1)CCCC2 [Risperidone base, Risperidone] | 0.0025 mg/cm^2 · min | – | – | – | – |
| Cc1nc2n(c(=O)c1CCN1CCC(c3noc4cc(F)ccc34)CC1)CCCC2 [Risperidone pamoate, Risperidone-pamoate] | – | 0.2 (pH 7.2) mg/ml | 0.2 (pH 7.2) mg/ml | 0.05 mg/mL | 2.97 mg/mL |
